The supplement of paper PMC10307832

Tests used:
Assay in all cases: relative viability (nuclei count vs DMSO), 5 days (fraction); higher = more cells survive
[1] = compound: CC1=CC(=NN1)NC2=CC(=NC(=N2)/C=C/C3=CC=CC=C3)N4CCN(CC4)C + Cc1nc(Nc2ncc(C(=O)Nc3c(C)cccc3Cl)s2)cc(N2CCN(CCO)CC2)n1 [Dasatinib] (partner 0.075 µM)
Summary of the method: (§1)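 A single step with final 0.05% Triton X-100, 1% formaldehyde and 1 ug/ml Hoechst fixed the cells and stained nuclei 5 days after treatment. Lung cancer cell lines in 1536-well plates had been treated by pin tool the day after seeding with one drug alone or a fixed anchor-drug dose plus five library-drug doses (not always all listed) in √10 steps, and nuclei were counted on 4× images. Relative viability is the ratio of nuclei in treated wells to nuclei in vehicle wells, taken as the median of duplicate plates.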

[2] = compound: CC(C)C[C@H](NC(=O)[C@H](Cc1ccccc1)NC(=O)c1cnccn1)B(O)O [Bortezomib] + C[C@@H](Oc1cc(-c2cnn(C3CCNCC3)c2)cnc1N)c1c(Cl)ccc(F)c1Cl [Crizotinib] (partner 1 µM)
Summary of the method: as §1

[3] = compound: CC1=CC(=NN1)NC2=CC(=NC(=N2)/C=C/C3=CC=CC=C3)N4CCN(CC4)C + O=C(c1cc(Cc2n[nH]c(=O)c3ccccc23)ccc1F)N1CCN(C(=O)C2CC2)CC1 [Olaparib] (partner 8 µM)
Summary of the method: as §1

[4] = compound: CC(C)C[C@H](NC(=O)[C@H](Cc1ccccc1)NC(=O)c1cnccn1)B(O)O [Bortezomib] + CS(=O)(=O)CCNCc1ccc(-c2ccc3ncnc(Nc4ccc(OCc5cccc(F)c5)c(Cl)c4)c3c2)o1 [Lapatinib] (partner 2 µM)
Summary of the method: as §1

Cell Line | relative viability ([1]; first compound 0.08 µM) | relative viability ([1]; first compound 0.253 µM) | relative viability ([1]; first compound 0.8 µM) | relative viability ([1]; first compound 2.53 µM) | relative viability ([1]; first compound 8 µM) | relative viability ([2]; first compound 0.0002 µM) | relative viability ([2]; first compound 0.000632 µM) | relative viability ([2]; first compound 0.002 µM) | relative viability ([2]; first compound 0.006325 µM) | relative viability ([2]; first compound 0.02 µM) | relative viability ([3]; first compound 0.08 µM) | relative viability ([3]; first compound 0.253 µM) | relative viability ([3]; first compound 0.8 µM) | relative viability ([3]; first compound 2.53 µM) | relative viability ([3]; first compound 8 µM) | relative viability ([4]; first compound 0.0002 µM) | relative viability ([4]; first compound 0.000632 µM) | relative viability ([4]; first compound 0.002 µM) | relative viability ([4]; first compound 0.006325 µM) | relative viability ([4]; first compound 0.02 µM)
NCI-H1651 | 0.423 | 0.398 | 0.407 | 0.171 | 0.116 | 0.805 | 0.837 | 0.816 | 0.778 | 0.141 | 0.177 | 0.189 | 0.176 | 0.166 | 0.135 | 0.709 | 0.74 | 0.301 | 0.128 | 0.103
NCI-H1666 | 0.787 | 0.874 | 0.778 | 0.659 | 0.294 | 0.941 | 1.11 | 0.9 | 0.202 | 0.228 | 0.748 | 0.7 | 0.767 | 0.741 | 0.501 | 0.611 | 0.883 | 0.841 | 0.194 | 0.187
NCI-H1734 | 0.4 | 0.454 | 0.464 | 0.257 | 0.111 | 0.737 | 0.71 | 0.491 | 0.106 | 0.0952 | 0.562 | 0.645 | 0.554 | 0.408 | 0.118 | 0.977 | 0.99 | 1.32 | 0.21 | 0.112
NCI-H1755 | 0.465 | 0.466 | 0.425 | 0.253 | 0.14 | 0.866 | 0.828 | 0.877 | 0.196 | 0.156 | 0.877 | 0.89 | 0.856 | 0.514 | 0.253 | 0.991 | 0.853 | 1.04 | 0.48 | 0.155
NCI-H1792 | 0.749 | 0.848 | 0.733 | 0.525 | 0.151 | 0.893 | 0.974 | 0.952 | 0.933 | 0.729 | 0.437 | 0.501 | 0.431 | 0.374 | 0.031 | 0.797 | 0.862 | 0.967 | 0.929 | 0.797
NCI-H1915 | 0.347 | 0.27 | 0.28 | 0.16 | 0.0845 | 0.877 | 0.909 | 0.694 | 0.435 | 0.0428 | 0.256 | 0.255 | 0.262 | 0.223 | 0.126 | 0.94 | 0.944 | 0.932 | 0.973 | 0.0577
NCI-H1944 | 0.23 | 0.209 | 0.197 | 0.147 | 0.107 | 1.06 | 1.04 | 0.899 | 1.21 | 0.142 | 0.416 | 0.406 | 0.467 | 0.29 | 0.207 | 0.883 | 0.774 | 0.929 | 0.809 | 0.328
NCI-H1975 | 0.356 | 0.394 | 0.325 | 0.124 | 0.061 | 0.944 | 0.883 | 0.192 | 0.128 | 0.127 | 0.75 | 0.842 | 0.726 | 0.389 | 0.115 | 0.893 | 0.839 | 0.18 | 0.105 | 0.14
NCI-H1993 | 0.613 | 0.527 | 0.565 | 0.44 | 0.37 | 0.876 | 0.974 | 0.847 | 0.342 | 0.506 | 1.01 | 1.24 | 0.894 | 0.829 | 0.419 | 0.69 | 0.77 | 0.935 | 0.51 | 0.497
NCI-H2009 | 0.325 | 0.307 | 0.329 | 0.15 | 0.0844 | 0.992 | 1.06 | 0.956 | 0.329 | 0.0389 | 0.657 | 0.746 | 0.691 | 0.811 | 0.324 | 0.583 | 0.812 | 0.968 | 0.0615 | 0.0663
NCI-H2023 | 0.575 | 0.588 | 0.555 | 0.0936 | 0.0621 | 0.606 | 0.718 | 0.598 | 0.146 | 0.0674 | 0.464 | 0.586 | 0.384 | 0.0975 | 0.0526 | 0.521 | 0.822 | 0.773 | 0.144 | 0.0649
NCI-H2085 | 0.245 | 0.232 | 0.276 | 0.255 | 0.2 | 0.814 | 0.988 | 0.757 | 0.188 | 0.217 | 0.783 | 0.792 | 0.755 | 0.429 | 0.28 | 0.725 | 0.759 | 0.727 | 0.382 | 0.231
NCI-H2087 | 0.934 | 0.601 | 0.627 | 0.182 | 0.0767 | 0.912 | 0.911 | 0.74 | 0.0857 | 0.072 | 0.538 | 0.629 | 0.553 | 0.303 | 0.0973 | 0.897 | 0.951 | 0.541 | 0.114 | 0.0853
NCI-H2126 | 0.64 | 0.696 | 0.662 | 0.476 | 0.189 | 0.991 | 0.993 | 1.08 | 0.957 | 0.195 | 0.865 | 0.91 | 0.908 | 0.801 | 0.518 | 0.762 | 0.757 | 0.762 | 0.727 | 0.595
NCI-H2170 | 0.573 | 0.563 | 0.471 | 0.203 | 0.112 | 1.03 | 1.02 | 1.11 | 0.233 | 0.18 | 0.512 | 0.65 | 0.577 | 0.263 | 0.102 | 0.253 | 0.266 | 0.306 | 0.266 | 0.2
NCI-H2228 | 0.448 | 0.539 | 0.369 | 0.0563 | 0.0381 | 0.521 | 0.482 | 0.376 | 0.166 | 0.163 | 0.699 | 0.727 | 0.374 | 0.316 | 0.0565 | 0.986 | 0.816 | 0.438 | 0.115 | 0.119
NCI-H2347 | 0.297 | 0.305 | 0.336 | 0.293 | 0.24 | 0.657 | 0.582 | 0.348 | 0.291 | 0.298 | 0.553 | 0.665 | 0.578 | 0.565 | 0.406 | 0.922 | 1.05 | 0.942 | 0.849 | 0.37
NCI-H2405 | 0.227 | 0.216 | 0.206 | 0.165 | 0.109 | 0.88 | 0.83 | 0.834 | 0.24 | 0.15 | 0.842 | 0.937 | 0.93 | 0.753 | 0.183 | 0.817 |  | 1.01 | 0.112 | 0.121
NCI-H3122 | 0.9 | 0.633 | 0.811 | 0.551 | 0.176 | 0.252 | 0.264 | 0.287 | 0.275 | 0.182 | 0.568 | 0.722 | 0.654 | 0.62 | 0.474 | 0.943 | 1.01 | 1.01 | 0.902 | 0.202
PC-3 [JPC-3] | 0.931 | 1.04 | 0.978 | 0.948 | 0.802 | 1.01 | 0.98 | 0.726 | 0.934 | 0.133 | 1.16 | 1.31 | 1.22 | 1.09 | 0.615 | 0.469 | 0.453 | 0.49 | 0.364 | 0.16
PC-14 | 0.273 | 0.211 | 0.22 | 0.0234 | 0.0115 | 0.935 | 0.935 | 0.947 | 0.359 | 0.0821 | 0.285 | 0.289 | 0.275 | 0.0326 | 0.0264 | 0.323 | 0.356 | 0.354 | 0.239 | 0.0862
RERF-LC-KJ | 0.908 | 0.944 | 0.837 | 0.249 | 0.166 | 0.846 | 0.85 | 0.84 | 0.271 | 0.178 | 0.982 | 0.88 | 0.882 | 0.243 | 0.201 | 0.82 | 0.91 | 0.846 | 0.653 | 0.242
SK-LU-1 | 0.174 | 0.171 | 0.156 | 0.108 | 0.0621 | 0.793 | 0.912 | 0.626 | 0.173 | 0.136 | 0.405 | 0.515 | 0.423 | 0.273 | 0.125 | 0.781 | 0.894 | 0.497 | 0.13 | 0.146
SK-MES-1 | 0.479 | 0.322 | 0.493 | 0.139 | 0.0976 | 0.967 | 0.994 | 0.935 | 0.261 | 0.161 | 0.667 | 0.776 | 0.566 | 0.126 | 0.134 | 0.487 | 0.45 | 0.506 | 0.423 | 0.214
SW 1573 | 0.545 | 0.578 | 0.517 | 0.0958 | 0.0582 | 0.851 | 0.82 | 0.631 | 0.181 | 0.0539 | 0.442 | 0.413 | 0.377 | 0.111 | 0.0633 | 1.03 | 1.09 | 1.14 | 0.308 | 0.0835
UMC-11 | 0.487 | 0.426 | 0.329 | 0.163 | 0.125 | 0.503 | 0.63 | 0.591 | 0.225 | 0.0917 | 0.361 | 0.39 | 0.395 | 0.0656 | 0.167 | 0.813 | 0.846 | 0.837 | 0.375 | 0.149
